Data published in ChEMBL document CHEMBL6109088 (J Med Chem, 2025).

Assays:
in vivo [1] = conditions: male, cynomolgus monkey, po, 10 mg/kg
in vivo [2] = conditions: male, Beagle, dog, po, 10 mg/kg
in vivo [3] = conditions: male, Wistar Hannover, rat, po, 10 mg/kg
in vivo [4] = conditions: male, cynomolgus monkey, po, 10 mg/kg; remark: listed apart in the source
physchem = conditions: octanol/water
in vivo [5] = conditions: male, Wistar Hannover, rat, iv, 1 mg/kg
in vivo [6] = conditions: male, Beagle, dog, iv, 1 mg/kg
in vitro [7] = conditions: human, liver microsomes
in vivo [8] = conditions: male, Wistar Hannover, rat, po, 10 mg/kg; remark: listed apart in the source
in vivo [9] = conditions: male, Wistar Hannover, rat, iv, 1 mg/kg; remark: listed apart in the source
in vivo [10] = conditions: male, cynomolgus monkey, plasma, iv, 1 mg/kg
in vivo [11] = conditions: male, Beagle, dog, iv, 1 mg/kg; remark: listed apart in the source
in vivo [12] = conditions: male, cynomolgus monkey, po, 10 mg/kg; remark: listed apart in the source
in vivo [13] = conditions: male, Wistar Hannover, rat, iv, 1 mg/kg; remark: listed apart in the source
in vivo [14] = conditions: male, Wistar Hannover, rat, plasma, iv, 1 mg/kg
in vivo [15] = conditions: male, cynomolgus monkey, iv, 1 mg/kg
in vivo [16] = conditions: male, cynomolgus monkey, iv, 1 mg/kg; remark: listed apart in the source
in vivo [17] = conditions: male, Beagle, dog, po, 10 mg/kg; remark: listed apart in the source
in vivo [18] = conditions: male, Wistar Hannover, rat, po, 10 mg/kg; remark: listed apart in the source
in vivo [19] = conditions: male, Beagle, dog, po, 10 mg/kg; remark: listed apart in the source
in vitro [20] = conditions: dog, MDCK
in vivo [21] = conditions: male, Beagle, dog, plasma, iv, 1 mg/kg
in vivo [22] = conditions: rat, po
SARS-CoV-2 = assay: microbe, parasite or virus in culture; conditions: Severe acute respiratory syndrome coronavirus 2, USA-WA1/2020, Vero C1008
in vivo [23] = conditions: male, Wistar Hannover, rat, po, 10 mg/kg; remark: listed apart in the source
in vivo [24] = conditions: male, cynomolgus monkey, iv, 1 mg/kg; remark: listed apart in the source
in vivo [25] = conditions: male, Wistar Hannover, rat, po, 10 mg/kg; remark: listed apart in the source
in vivo [26] = conditions: male, Wistar Hannover, rat, iv, 1 mg/kg; remark: listed apart in the source
in vivo [27] = conditions: male, cynomolgus monkey, po, 10 mg/kg; remark: listed apart in the source

In the case of CC(C)[C@H](NC(=O)C(F)(F)F)C(=O)N1C[C@H]2[C@@H]([C@H]1C(=O)N[C@@H](C[C@@H]1CCNC1=O)C(=O)c1nc3ccccc3s1)C2(C)C, the Cmax (in vivo [1]) is reported as 331 ng/mL, the Cmax (in vivo [2]) is reported as 383 ng/mL and the Tmax at 4 h (in vivo [3]) is reported as 0.67 h. It also gave a bioavailability (in vivo [4]) of 7.85%, a logD (physchem) of 3 and a Vd at 4 h (in vivo [5]) of 2.16 L/kg. The half-life (in vivo [6]) was 0.9 h, the microsomal CLint (in vitro [7]) was 30.3 µL/min/mg and the AUC(0-inf) at 4 h (in vivo [8]) was 2310 ng·h/mL. The AUC(0-inf) at 4 h (in vivo [9]) was 538 ng·h/mL, the clearance (in vivo [10]) was 26 mL/min/kg and the Vd (in vivo [11]) was 1.1 L/kg. The Tmax (in vivo [12]) was 1.5 h, the half-life at 4 h (in vivo [13]) was 6.8 h and the clearance at 4 h (in vivo [14]) was 31 mL/min/kg. The AUC(0-inf) (in vivo [15]) was 977 ng·h/mL, the Vd (in vivo [16]) was 0.58 L/kg and the half-life (in vivo [17]) was 4.43 h. It also gave a bioavailability at 4 h (in vivo [18]) of 54.3%, a Tmax (in vivo [19]) of 0.75 h and a Papp A→B (in vitro [20]) of 13.1 ×10⁻⁶ cm/s. For the same compound, the clearance (in vivo [21]) was 20.7 mL/min/kg, the bioavailability (in vivo [22]) was 54% and the EC50 (SARS-CoV-2) was 85.3 nM. For the same compound, the Cmax at 4 h (in vivo [23]) was 521 ng/mL, the half-life (in vivo [24]) was 1.08 h and the half-life at 4 h (in vivo [25]) was 3.39 h. The AUC(0-inf) at 4 h (in vivo [26]) was 632 ng·h/mL and the AUC(0-inf) (in vivo [27]) was 505 ng·h/mL.
CC(C)[C@H](NS(C)(=O)=O)C(=O)N1C[C@H]2[C@@H]([C@H]1C(=O)N[C@@H](C[C@@H]1CCNC1=O)C(=O)c1nc3ccccc3s1)C2(C)C showed a logD (physchem) of 2.4, a microsomal CLint (in vitro [7]) of 70 µL/min/mg and a Papp A→B (in vitro [20]) of 1.7 ×10⁻⁶ cm/s. For the same compound, the bioavailability (in vivo [22]) was 7% and the EC50 (SARS-CoV-2) was 909 nM.
In the case of CC(C)[C@H](NC(=O)C(F)(F)F)C(=O)N1C[C@H]2[C@@H]([C@H]1C(=O)N[C@@H](C[C@@H]1CCNC1=O)C(=O)c1nc3cc(C(F)(F)F)ccc3s1)C2(C)C, the microsomal CLint (in vitro [7]) is reported as 45.3 µL/min/mg, the Papp A→B (in vitro [20]) is reported as 8.8 ×10⁻⁶ cm/s and the EC50 (SARS-CoV-2) is reported as 64.8 nM.
Compound CN(C)C(=O)N[C@H](C(=O)N1C[C@H]2[C@@H]([C@H]1C(=O)N[C@H](C#N)C[C@@H]1CCNC1=O)C2(C)C)C(C)(C)C has a microsomal CLint (in vitro [7]) of 22.2 µL/min/mg, a Papp A→B (in vitro [20]) of 0.383 ×10⁻⁶ cm/s and an EC50 (SARS-CoV-2) of 1780 nM.
Work on CC(C)[C@H](NC(=O)C(F)(F)F)C(=O)N1C[C@H]2[C@@H]([C@H]1C(=O)N[C@@H](C[C@@H]1CCNC1=O)C(=O)c1nc3ccccc3o1)C2(C)C yielded a microsomal CLint (in vitro [7]) of 7.3 µL/min/mg, a Papp A→B (in vitro [20]) of 2.1 ×10⁻⁶ cm/s and a bioavailability (in vivo [22]) of 18%. The EC50 (SARS-CoV-2) was 207 nM.
Compound CC(C)(C)[C@H](NS(C)(=O)=O)C(=O)N1C[C@H]2[C@@H]([C@H]1C(=O)N[C@H](C#N)C[C@@H]1CCNC1=O)C2(C)C has a microsomal CLint (in vitro [7]) of 11.4 µL/min/mg, a Papp A→B (in vitro [20]) of less than 0.193 ×10⁻⁶ cm/s and a bioavailability (in vivo [22]) of less than 1%. For the same compound, the EC50 (SARS-CoV-2) was 540 nM.
For COc1ccc2nc(C(=O)[C@H](C[C@@H]3CCNC3=O)NC(=O)[C@@H]3[C@@H]4[C@H](CN3C(=O)[C@@H](NC(=O)C(F)(F)F)C(C)C)C4(C)C)sc2c1, the microsomal CLint (in vitro [7]) was 20.7 µL/min/mg, the Papp A→B (in vitro [20]) was 13.8 ×10⁻⁶ cm/s and the EC50 (SARS-CoV-2) was 611 nM.
CC(C)[C@H](NC(=O)C(F)(F)F)C(=O)N1C[C@H]2[C@@H]([C@H]1C(=O)N[C@@H](C[C@@H]1CCNC1=O)C(=O)c1noc(-c3ccccc3)n1)C2(C)C gave a microsomal CLint (in vitro [7]) of 40.5 µL/min/mg, a Papp A→B (in vitro [20]) of 3.5 ×10⁻⁶ cm/s and an EC50 (SARS-CoV-2) of 194 nM.
CC(C)[C@H](NC(=O)C(F)(F)F)C(=O)N1C[C@H]2[C@@H]([C@H]1C(=O)N[C@@H](C[C@@H]1CCNC1=O)C(=O)c1noc(C(C)(C)C)n1)C2(C)C showed a microsomal CLint (in vitro [7]) of less than 7 µL/min/mg, a Papp A→B (in vitro [20]) of 0.5 ×10⁻⁶ cm/s and an EC50 (SARS-CoV-2) of 625 nM.
In the case of COc1cccc2[nH]c(C(=O)N[C@@H](CC(C)(C)C)C(=O)N[C@@H](C[C@@H]3CCNC3=O)C(=O)c3nc4ccccc4s3)cc12, the logD (physchem) is reported as 4, the microsomal CLint (in vitro [7]) is reported as 350 µL/min/mg and the Papp A→B (in vitro [20]) is reported as 4.3 ×10⁻⁶ cm/s. For the same compound, the bioavailability (in vivo [22]) was less than 1% and the EC50 (SARS-CoV-2) was 383 nM.
In the case of CC(C)(C)[C@H](NC(=O)CC(F)(F)F)C(=O)N1C[C@H]2[C@@H]([C@H]1C(=O)N[C@H](C#N)C[C@@H]1CCNC1=O)C2(C)C, the microsomal CLint (in vitro [7]) is reported as 12.7 µL/min/mg, the Papp A→B (in vitro [20]) is reported as 0.916 ×10⁻⁶ cm/s and the EC50 (SARS-CoV-2) is reported as 850 nM.
COc1cccc2[nH]c(C(=O)N[C@@H](CC(C)C)C(=O)N[C@@H](C[C@@H]3CCNC3=O)C(=O)CO)cc12 [PF-00835231] gave a logD (physchem) of 1.7, a microsomal CLint (in vitro [7]) of 7 µL/min/mg and a Papp A→B (in vitro [20]) of less than 0.207 ×10⁻⁶ cm/s. It also gave a bioavailability (in vivo [22]) of less than 0.5%.
